Source: article PMC2669294, “The Spliceosomal Phosphopeptide P140 Controls the Lupus Disease by Interacting with the HSC70 Protein and via a Mechanism Mediated by γδ T Cells” (PLoS ONE, 2009)
Non-standard residues stand in square brackets, D forms with d. Residues, ends and D or L forms follow the SMILES beside them. No end group written: not given here. pS = N[C@@H](COP(=O)(O)O)C(=O)O

Columns and labels:
[1] = Solubility limit by dynamic light scattering; format: physicochemical
Procedure: The solubility of P140 and 131–151 peptides was determined at 20 and 37°C using dynamic light scattering measurements. […] The integrity of P140, as measured in saline and PBS by high-performance liquid chromatography from the area of the peak corresponding to the intact peptide, remained intact during at least 60 days at 37°C (Figure 2D).
The synthesis and purification of P140 peptide (RIHMVYSKRpSGKPRGYAFIEY; produced under Good Manufacturing Practice conditions), and of peptides 131–151 ([…]) and ScP140 (YVSRYFGpSAIRHEPKMKIYRG) were described previously, [3], [7]. For the biotin-labeled peptides, the biotin moiety was introduced at the end of peptide assembly as a Fmoc-Lys(biotin)-OH derivative. Homogeneity of peptides was checked by analytical high-performance liquid chromatography, and their identity was assessed by matrix-assisted laser desorption and ionization time-of-flight (TOF) mass spectrometry using a Protein TOF apparatus (Bruker Spectrospin). The solubility limits of both peptides in the cell culture medium RPMI 1640, PBS and distilled water were determined at 20 and 37°C using dynamic light scattering measurements.

[2] = target: T1, Recombinant bovine HSC70 (Bos taurus, UniProt P19120); assay: Surface plasmon resonance, direct binding of peptides to immobilized HSC70; details: SPR BIAcore 3000, HSC70 immobilized via thiol groups on CM5, HBS-EP pH 7.4, 25°C, peptide 1.56 to 12.5 µM, 1:1 Langmuir model; for kon: read-out: association rate constant (kon); for koff: read-out: dissociation rate constant (koff)
T1 construct: purchased Stressgen
T1 sequence (P19120 whole entry): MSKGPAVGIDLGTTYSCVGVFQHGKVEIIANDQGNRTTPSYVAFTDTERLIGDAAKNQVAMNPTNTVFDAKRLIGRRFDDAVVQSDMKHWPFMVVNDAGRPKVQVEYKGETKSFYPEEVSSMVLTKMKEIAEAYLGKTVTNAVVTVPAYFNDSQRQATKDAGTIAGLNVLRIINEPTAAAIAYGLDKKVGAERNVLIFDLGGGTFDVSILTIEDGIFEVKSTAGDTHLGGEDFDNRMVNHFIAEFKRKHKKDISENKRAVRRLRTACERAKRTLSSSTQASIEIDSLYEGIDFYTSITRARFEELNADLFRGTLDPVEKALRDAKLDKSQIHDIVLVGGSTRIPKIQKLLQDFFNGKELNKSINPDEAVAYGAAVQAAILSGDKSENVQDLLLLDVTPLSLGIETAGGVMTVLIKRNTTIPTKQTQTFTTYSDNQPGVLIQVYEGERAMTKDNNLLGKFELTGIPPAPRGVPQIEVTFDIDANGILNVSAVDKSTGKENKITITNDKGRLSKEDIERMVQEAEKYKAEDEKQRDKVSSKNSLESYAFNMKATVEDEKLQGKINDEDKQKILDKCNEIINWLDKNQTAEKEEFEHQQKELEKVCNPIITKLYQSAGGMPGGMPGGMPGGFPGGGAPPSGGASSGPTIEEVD
Procedure: To assess P140 binding to HSC70, we investigated the binding parameters and kinetics by surface plasmon resonance. HSC70 was immobilized onto the sensor chip via one of its four thiol groups, and different concentrations of P140 and 131–151 peptides were injected in the flux followed by a dissociation phase (see the overlay surface plasmon resonance plots of the raw data in Figure 1B). […] Similar data were obtained when biotinylated P140 was on the chip and HSC70 in solution. Thus, in this in vitro system, both peptides bind with medium affinity (µM range) to HSC70. […] Of significant importance, no binding was observed between P140 and Hsp70.
BIAcore 3000 system (Biacore AB) was used to evaluate the binding of P140 peptide to HSC70 protein. Sensor chip CM5, surfactant P20, amine coupling kit containing N-hydroxysuccinimide (NHS) and N-ethyl-N′-dimethylaminopropyl carbodiimide (EDC), 2-(2-pyridinyldithio)ethaneamine (PDEA) and ethanolamine were from Biacore AB. Biosensor assays were performed with HBS-EP buffer as running buffer (10 mM HEPES, 150 mM NaCl, 3 mM EDTA, 0.005% surfactant P20, pH 7.4). The different compounds were diluted in the running buffer. The sensor chip surface was regenerated after each experiment by injecting 10 µL of 10 mM HCl. Recombinant bovine HSC70 (Stressgen) was immobilized on flow cells of a CM5 sensor chip through its thiol groups using 35 µL PDEA in 50 mM borate buffer, pH 8.3 on the NHS/EDC-activated matrix. Then, 35 µL of HSC70 (100 µg/mL in formate buffer, pH 4.3) were injected until a response of 13,000 response units (RU) corresponding to 13 ng/mm^2 of HSC70 was immobilized. Twenty µL of a 50 mM cysteine/1 M NaCl solution was used to saturate unoccupied sites on the chip. The direct binding measurement of P140 peptides to HSC70 was carried out at 25°C with a constant flow rate of 20 µL/min. P140 peptide and analogues were injected in the flux at different concentrations for 3 min, followed by a dissociation phase of 3 min. The kinetic parameters were calculated using the BIAeval 3.1 software on a personal computer. Analysis was performed using the simple 1∶1 Langmuir binding model. The specific binding profiles were obtained after subtracting the response signal from the control empty channel and from blank-buffer injection. The fitting to each model was judged by the χ square value and randomness of residue distribution compared to the theoretical model.

[3] = tested on: MRL/lpr mice; design: method as in PMID 2397613; details: cited from earlier work
[4] = tested on: SLE patients; details: human, in vivo; cited from earlier work
[5] = target: HSC70 (heat-shock cognate 71-kDa protein) (UniProt P63017); assay: biotin-peptide on cells, lysis, avidin-agarose pull-down; details: reference: non-phosphorylated biotin-peptide 131-151; sites S140
[6] = target: T2, recombinant bovine HSC70 (bovine, UniProt P19120 1-650); assay: SPR; BIAcore 3000; recombinant bovine HSC70 immobilised on CM5 chip through its thiol groups (13,000 RU); peptides injected (1.56 to 12.5 µM) 3 min, dissociation 3 min; 25°C, 20 µL/min; HBS-EP pH 7.4; 1:1 Langmuir model; details: both partners purified
T2 construct: heat-shock cognate HSC70 protein, bovine, recombinant (Stressgen); Immobilised through one of its four thiol groups in the SPR experiment; no tag is named; also called recombinant HSC70 protein; source: bought: Stressgen (recombinant)
T2 sequence (P19120 whole entry): as above

Molecule	kon [2] [M⁻¹ s⁻¹]	koff [2] [s⁻¹]	Kd [6] [µM]	further results
CC[C@H](C)[C@H](NC(=O)[C@H](Cc1ccccc1)NC(=O)[C@H](C)NC(=O)[C@H](Cc1ccc(O)cc1)NC(=O)CNC(=O)[C@H](CCCNC(=N)N)NC(=O)[C@@H]1CCCN1C(=O)[C@H](CCCCN)NC(=O)CNC(=O)[C@H](COP(=O)(O)O)NC(=O)[C@H](CCCNC(=N)N)NC(=O)[C@H](CCCCN)NC(=O)[C@H](CO)NC(=O)[C@H](Cc1ccc(O)cc1)NC(=O)[C@@H](NC(=O)[C@H](CCSC)NC(=O)[C@H](Cc1c[nH]cn1)NC(=O)[C@@H](NC(=O)[C@@H](N)CCCNC(=N)N)[C@@H](C)CC)C(C)C)C(=O)N[C@@H](CCC(=O)O)C(=O)N[C@@H](Cc1ccc(O)cc1)C(=O)O [P140] (HELM PEPTIDE1{R.I.H.M.V.Y.S.K.R.[O=C([C@H](COP(=O)(O)O)N[*:1])[*:2]].G.K.P.R.G.Y.A.F.I.E.Y}$$$$V2.0)	530	0.00388	–	solubility ([1]; in water): highly soluble
N=C(N)NCCCCCCC(=O)NC(O)C(=O)NCCCCNCCCN (centres unmarked) [15-deoxyspergualin]	–	–	–	progression of polyclonal B cell activation and lupus nephropathy [3]: suppressed the progression; treated patients with non-severe infectious episodes [4]: two of three
RIHMVYSKRSGKPRGYAFIEY [131–151]	606	0.00407	–	solubility ([1]; 200 µM-solution in water, PBS and culture medium (RPMI 1640), 20 and 37°C): highly soluble
U1-70K small nuclear ribonucleoparticle protein 131-151 (from UniProt Q62376) biotin-P140 (pS140)	–	–	–	binding against the reference [5]: same
RIHMVYSKR[pS]GKPRGYAFIEY (pS is the phosphoserine; also called phosphopeptide P140; source: synthetic peptide) [P140 peptide (U1-70K snRNP protein residues 131-151, phosphorylated on Ser140)]	–	–	7.32	–
RIHMVYSKRSGKPRGYAFIEY (also called non-phosphorylated analogue; source: synthetic peptide) [non-phosphorylated peptide 131-151 of the U1-70K snRNP protein]	–	–	6.72	–
